Experimental data from patent US20220062233A1 (The Board of Trustees of the Leland Stanford Junior …, priority 2018, published 2022).
pIC50: −log10 of the molar value.

What was measured:
mutant HTT [1] = assay: Mutant HTT assay in induced pluripotent stem cells (iPSC); assay type: cell-based, human; details: HD patient iPSCs, one day incubation, read-out: iPSC IC20 (nM) mHTT
Protocol: C. Mutant HTT Assay in Induced Pluripotent Stem Cells (iPSC) a. Cell Culturing and Compound Treatment
Huntington's disease patient iPSCs (ND50036 from NINDS) were detached into single cells by Accutase (25058CI from Corning), counted and plated on a 24-well plate coated with Matrigel (354277 from Corning) at density of 7,000 cells/well. After 48 hrs, compounds were added to the cell culture medium mTeSR1 (85850 from StemCell Technologies) and the cells were incubated for one day. The medium was then removed, and the cells were washed with PBS. After all liquid was removed, the plate was placed at −80° C. overnight. Lysis buffer [30 mM Tris-HCl (pH 8.0), 5 mM NaCl, 0.1% Triton X-100] with the complete proteinase inhibitor cocktail (5892791001 from Sigma-Aldrich) was then added to the cells. Cell samples were lysed on an orbital plate shaker at 4° C. at 700 rpm for 30 min. The supernatants from spinning (14 k rpm for 10 min) were collected. The protein concentrations were determined by BCA assay (23225 from Pierce, ThermoFisher). […]
b. Detection of Mutant HTT Protein
Equal amounts of protein lysate collected from each sample were added to a 96-well plate that had been coated with a human HTT specific monoclonal antibody. After washing away any unbound substances, a biotinylated anti-human mutant HTT specific detection antibody was added. Streptavidin-horseradish peroxidase was subsequently added, followed by TMB Substrate Solution, which yielded a blue product that turns yellow when the Stop Solution was added. The intensity of the color measured was in proportion to the amount of mutant HTT bound in the initial step. The mutant HTT values are then interpolated from a standard curve.

[2] = system: Lymphoblastoid cells (GM14044); assay: LBC cell viability (Cell Titer-Glo); assay type: cell-based, human; details: at the concentration of IC20, 3-day compound treatment
Protocol: Cell viability was determined by Cell Titer-Glo reagent (Promega, PRG9243). After 3-day compound treatment, 15 μl of cell suspension was taken out from plate and incubated with 10 μl of CTG reagent. The values of reaction mixture were detected by Tecan.

[3] = target: T1, interaction between Supt4h and NGN (subunit of Supt5h) (Homo sapiens, UniProt O00267+P63272); assay: Split Gaussia luciferase complementation assay (M2-8 Luciferase); assay type: cell-based; details: M2-8 cells
T1 construct: expressed in transfected cells
Protocol: A. Split Gaussia Luciferase Complementation Assay […]
i: pNBR-X1-Supt4-Gluc1 and pNEBR-X1-NGN-Gluc2
The HA-Supt4h and Flag-NGN fragments are amplified by PCR using the plasmid pHA-Supt4h-YC and pFlag-NGN-YN and sub-cloned individually into pcDNA3.1-Gluc1 and pcDNA3.1-Gluc2 (described in “A highly sensitive protein-protein interaction assay based on Gaussia luciferase” published at Nat Methods. 2006 December; 3(12):977-9. Epub 2006 Nov. 12). Then HA-Supt4h-Gluc1 and Flag-NGN-Gluc2 are amplified by PCR and inserted to pNEBR-X1-Hygro (New England BioLabs), which contain RheoSwitch responsive element under the control of RheoSwitch ligand. […]
ii: pNEBR-X1-Supt4h-G1-NGN-G2
PCR products containing the sequence from 5XRE to polyA in pNEBR-X1-NGN-G2 are inserted to pNEBR-X1-Supt4h-G1 at Pcil site to generate Supt4h-G1 and NGN-G2 bidirectional under their own RheoSwitch responsive element and polyA in the same plasmid. […]
b. Stable Cloned Cell Line i: 293-R1 is a cloned cell line which is engineered to constitutively express RSL1 receptor/activator by transfecting HEK 293 cells with pNEBR-R1 plasmid (New England BioLabs) and selected with blasticidin. […]
ii: M2-8 is a cloned 293-R1 cell which can inducibly express pNEBR-X1-Supt4h-G1-NGN-G2 by addition of RSL1. Two point mutations ([…] and M110I) are introduced to the GL1 and GL2 for better stability according to “A high-throughput cell-based Gaussia luciferase reporter assay for identifying modulators of fibulin-3 secretion” published in J Biomol Screen. 2013 July; 18(6):647-58. The cell line is selected by hygromycin. […]
c. Cell Culture and Transfection Condition
All the HEK-293 cells and derivative clones are maintained in DMEM containing 10% FBS plus corresponding antibiotics (250 μg/ml hygromycin B, 10 μg/ml blasticidin or both) at 37° C., 5% CO2. All the transfections are done by using Lipofectamine 2000 (Invitrogen) according to the manufacturer's instructions. […]
d. Bioluminescence Assay from Cell Lysates
Plasmids harboring the Gluc1 and Gluc2 are co-transfected in a 1:1 ratio into 293-R1 cells plated on tissue culture treated 24-well plates using Lipofectamine 2000 according to the manufacturer's instructions. For stable M2-8 cells, the cells are directly plated into 96-well or 384-well white plates. Twenty-four hours later, RheoSwitch ligand with or without test compound is added to the cells for induction/drug treatment. After 24 hr, the cells are washed with PBS and the plate was stored at −20° C. overnight. Lysis buffer [30 mM Tris-HCl (pH 8.0) 5 mM NaCl, 0.1% Triton X-100] with 10 μg/ml native coelenterazine (Nanolight Technology) is then added to the cells at room temperature for one hour in the dark. After shaking for about 1 min, 40 μl of cell lysate are transferred to a white 96-well plate. For M2-8 in white micro plate, no transfer is needed. Signal intensities (integrated 100 ms) were read on Tecan Infinite M200 or M1000.
The split Gaussia luciferase complementation assay measures the interaction between Sup4h and NGN. NGN is the subunit of Supt5h that binds to Supt4h.

wild-type HTT = assay: Wild-type HTT assay in lymphoblastoid cells (LBC), Western blot; assay type: cell-based, human; details: 3 days compound treatment, read-out: LBC IC20 (nM) wtHTT
Protocol: (§1) B. Mutant and Wild-Type HTT Assay in Lymphoblastoid Cells (LBC)
(§2) a. Cell Culturing and Compound Treatment
(§3) Lymphoblastoid cells derived from a Huntington's disease patient with 250 CAG repeats in the mutant HTT allele (GM14044 from Coriell Institute) were cultured in RPMI 1640 (Corning Cellgro, 10-040-CV) containing fetal bovine serum (Atlanta Biologicals, S11150). 4×10^5 cells were seeded on a 24-well plate and incubated with testing compound for 3 days. The cell suspension was then transferred to a 1.5 ml Eppendorf tube. Cells were collected by centrifugation and washed once with PBS. After all liquid was removed, the cell pellet was placed at −80° C. for at least 10 minutes. Lysis buffer [30 mM Tris-HCl (pH 8.0), 5 mM NaCl, 0.1% Triton X-100] with the proteinase inhibitor cocktail (P8340 from Sigma-Aldrich) was then added to the cells. Following centrifugation (14 k rpm for 15 min at 4° C.), the supernatant was collected. The protein concentrations were determined by BCA assay (Pierce, ThermoFisher).
(§4) Equal amounts of protein were loaded onto 4-12% gel (Invitrogen, WG1403A). After electrophoresis, the gels were transferred to nitrocellulose membranes by wet transfer at 72V for 3 hrs. […] The protein levels of mutant HTT, wild-type HTT, TBP, and tubulin were determined by immunoblotting with anti-polyQ specific antibody (clone MW1), anti-Huntingtin antibody (Abcam, ab45169), anti-TBP antibody (Sigma, T1827) and anti-alpha tubulin antibody (Sigma, T9026). Blots were imaged on a Li-Cor Odyssey infrared imager. The band intensities were determined by Li-Cor Odyssey software.

mutant HTT [4] = assay: Mutant HTT assay in lymphoblastoid cells (LBC), Western blot; assay type: cell-based, human; details: read-out: LBC IC20 (nM) mHTT, 3 days compound treatment
Protocol: as §1, §2, §3, §4

M2-8 cells = assay: M2-8 Cell viability Assay; assay type: cell-based; details: at the concentration of 1000 nM
[5] = system: Huntington's disease patient iPSCs (ND50036); assay: iPSC viability at IC20; assay type: cell-based, human; details: at the concentration of IC20

Row | Compound | IC20 (mutant HTT [1]; numeric bounds) [nM] | LBC viability at IC20 [2] | pIC50 [3] | IC20 (wild-type HTT) [nM] | IC20 (mutant HTT [4]) [nM] | M2-8 Cell viability (M2-8 cells) | IC20 (mutant HTT [1]; class symbols) [nM] | iPSC viability at IC20 [5]
1 | C#Cc1ccc2[nH]c3c(c2c1)CCC[C@H]3NCc1ccccc1 [Compound 5, (R)—N-benzyl-6-ethynyl-2,3,4,9-tetrahydro-1H-carbazol-1-amine] | > 100 | * (cell viability is greater than 60% at the concentration of IC20) | ≥ 7.00 | > 1000 | < 100 | + (cell viability is greater than 50% at the concentration of 1000 nM) | – | –
2 | Brc1ccc2[nH]c3c(c2n1)CCC[C@H]3NCc1ccccc1 [Compound 69] | – | – | ≥ 7.00 | – | – | + (cell viability is greater than 50% at the concentration of 1000 nM) | < 100 | + (cell viability is greater than 75% at the concentration of IC20)
3 | Brc1ccc2[nH]c3c(c2c1)CCC[C@H]3NCc1ccccn1 [Compound 33, (R)-6-bromo-N-(pyridin-2-ylmethyl)-2,3,4,9-tetrahydro-1H-carbazol-1-amine] | > 100 | * (cell viability is greater than 60% at the concentration of IC20) | 6.52 to 7.00 | > 1000 | 301 to 1000 | + (cell viability is greater than 50% at the concentration of 1000 nM) | – | –
4 | COCC(N[C@@H]1CCCc2c1[nH]c1ccc(Br)cc21)c1ccc(C(C)(C)O)cc1 (single isomer, unassigned) [Compound 53] | > 100 | – | 6.52 to 7.00 | > 500 | > 1000 | + (cell viability is greater than 50% at the concentration of 1000 nM) | – | –
5 | Brc1ccc2[nH]c3c(c2c1)CCC[C@H]3NCc1cccnc1 [Compound 32, (R)-6-bromo-N-(pyridin-3-ylmethyl)-2,3,4,9-tetrahydro-1H-carbazol-1-amine] | > 100 | * (cell viability is greater than 60% at the concentration of IC20) | 6.52 to 7.00 | > 1000 | < 100 | + (cell viability is greater than 50% at the concentration of 1000 nM) | – | –
6 | CC(C)(O)c1cccc(CN[C@@H]2CCCc3c2[nH]c2ccc(Br)cc32)c1 (single isomer, unassigned) [Compound 58] | > 100 | * (cell viability is greater than 60% at the concentration of IC20) | 6.52 to 7.00 | > 1000 | 101 to 300 | + (cell viability is greater than 50% at the concentration of 1000 nM) | – | –
7 | C=C(C)c1ccc(CN[C@@H]2CCCc3c2[nH]c2ccc(Br)cc32)s1 [Compound 68] | > 100 | * (cell viability is greater than 60% at the concentration of IC20) | ≥ 7.00 | > 1000 | 101 to 300 | + (cell viability is greater than 50% at the concentration of 1000 nM) | – | –
8 | OB(O)c1cccc(CN[C@@H]2CCCc3c2[nH]c2ccc(Br)cc32)c1 (single isomer, unassigned) [Compound 39] | > 100 | – | ≥ 7.00 | > 1000 | > 1000 | + (cell viability is greater than 50% at the concentration of 1000 nM) | – | –
9 | COC(=O)c1cccc(CN[C@@H]2CCCc3c2[nH]c2ccc(Br)cc32)c1 (single isomer, unassigned) [Compound 59] | > 100 | * (cell viability is greater than 60% at the concentration of IC20) | 6.52 to 7.00 | > 1000 | 101 to 300 | + (cell viability is greater than 50% at the concentration of 1000 nM) | – | –
10 | Brc1ccc2[nH]c3c(c2c1)CCC[C@H]3NCc1cccc(I)c1 [Compound 41, (R)-6-bromo-N-(3-iodobenzyl)-2,3,4,9-tetrahydro-1H-carbazol-1-amine] | > 100 | * (cell viability is greater than 60% at the concentration of IC20) | ≥ 7.00 | > 1000 | 101 to 300 | + (cell viability is greater than 50% at the concentration of 1000 nM) | – | –
